Experimental findings from US11332459B2 (TEIJIN PHARMA LIMITED, priority 2017, dated 2022) are described below.

Molecules are shown by their SMILES. Counter-ions that a name gives are not always drawn.

The target of this experiment is T1, human TRPC6 (Homo sapiens, UniProt Q9Y210).
T1 construct: expressed in transfected cells
T1 sequence (Q9Y210 1-931): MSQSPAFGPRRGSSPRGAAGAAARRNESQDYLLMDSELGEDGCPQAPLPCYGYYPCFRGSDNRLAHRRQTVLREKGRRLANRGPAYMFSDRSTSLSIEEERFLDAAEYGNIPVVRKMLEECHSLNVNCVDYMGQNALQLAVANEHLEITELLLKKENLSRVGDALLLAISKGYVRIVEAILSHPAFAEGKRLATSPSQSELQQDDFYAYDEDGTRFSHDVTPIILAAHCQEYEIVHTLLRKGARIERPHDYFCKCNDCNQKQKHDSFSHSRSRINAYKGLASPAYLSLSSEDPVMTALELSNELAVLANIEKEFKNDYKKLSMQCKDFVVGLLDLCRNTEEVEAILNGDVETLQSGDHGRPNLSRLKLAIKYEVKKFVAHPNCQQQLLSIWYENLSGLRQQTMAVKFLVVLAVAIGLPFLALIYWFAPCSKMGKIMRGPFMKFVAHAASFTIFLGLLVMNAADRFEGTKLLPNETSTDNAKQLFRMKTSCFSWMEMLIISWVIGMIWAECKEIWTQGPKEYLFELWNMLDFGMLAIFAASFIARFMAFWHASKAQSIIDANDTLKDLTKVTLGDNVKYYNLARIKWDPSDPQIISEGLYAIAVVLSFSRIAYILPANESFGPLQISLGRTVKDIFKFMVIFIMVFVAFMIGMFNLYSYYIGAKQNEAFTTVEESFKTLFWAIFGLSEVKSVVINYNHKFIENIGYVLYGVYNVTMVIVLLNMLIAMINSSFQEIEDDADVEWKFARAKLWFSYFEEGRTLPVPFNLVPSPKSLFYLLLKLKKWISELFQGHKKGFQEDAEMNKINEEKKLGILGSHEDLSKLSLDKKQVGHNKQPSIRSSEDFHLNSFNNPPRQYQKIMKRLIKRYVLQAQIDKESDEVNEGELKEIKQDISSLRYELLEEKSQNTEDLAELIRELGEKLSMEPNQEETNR
Nature of the experiment: TRPC6 calcium flux assay (FLIPR, OAG-stimulated calcium influx). It counts as cell-based. The note with it: HEK293 cells stably transfected with human TRPC6, read-out: hTRPC6 Potency. Summed up: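 HEK293 cells stably expressing human TRPC6, loaded with calcium dye 90–120 min at RT, then given compound for 25 min before OAG (50 uM final, 0.5% DMSO) in HEPES buffer pH 7.2 with 2 mM CaCl2. Background-subtracted FLIPR peak over 180 s normalized to OAG vs buffer; IC50 from dose plot.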
Background: A change in cytosolic calcium serves as a functional read-out for many receptors and channels.

As for `N[C@H]1CCCN(c2nc3ccccc3n2Cc2ccc(-c3ncon3)cc2)C1` [Example 369, (S)-1-(1-(4-(1,2,4-oxadiazol-3-yl)benzyl)-1H-benzo[d]imidazol-2-yl)piperidin-3-amine], the IC50 amounted to 0.00865 µM.

Turning to `CS(=O)(=O)c1ccc(Cn2c(N3CCC[C@@H](N)C3)nc3ccccc32)cc1` [Example 370, (R)-1-(1-(4-(methylsulfonyl)benzyl)-1H-benzo[d]imidazol-2-yl)piperidin-3-amine], the IC50 was above 50 µM.

As to `N[C@@H]1CCCN(c2nc3ccccc3n2Cc2ccc(-n3cncn3)cc2)C1` [Example 371, (R)-1-(1-(4-(1H-1,2,4-triazol-1-yl)benzyl)-1H-benzo[d]imidazol-2-yl)piperidin-3-amine], the IC50 is 6.83 µM.

Consider `N#Cc1ccccc1Cn1c(N2CCC[C@@H](N)C2)nc2ccccc21` [Example 372, (R)-2-((2-(3-aminopiperidin-1-yl)-1H-benzo[d]imidazol-1-yl)methyl)benzonitrile], for which the IC50 turned out to be 14.1 µM.

With `N[C@@H]1CCCN(c2nc3ccccc3n2Cc2c(Cl)cccc2Cl)C1` [Example 373, (R)-1-(1-(2,6-dichlorobenzyl)-1H-benzo[d]imidazol-2-yl)piperidin-3-amine], the IC50 is 5.85 µM.

Regarding `N[C@@H]1CCCN(c2nc3ccccc3n2Cc2ccccc2Cl)C1` [Example 374, (R)-1-(1-(2-chlorobenzyl)-1H-benzo[d]imidazol-2-yl)piperidin-3-amine], the IC50 came out at 3.41 µM.

With `N[C@@H]1CCCN(c2nc3ccccc3n2Cc2ccc(C(F)(F)F)cc2)C1` [Example 375, (R)-1-(1-(4-(trifluoromethyl)benzyl)-1H-benzo[d]imidazol-2-yl)piperidin-3-amine], the IC50 stood at 2.77 µM.

Consider `N[C@@H]1CCCN(c2nc3ccccc3n2Cc2ccc(OC(F)(F)F)cc2)C1` [Example 376, (R)-1-(1-(4-(trifluoromethoxy)benzyl)-1H-benzo[d]imidazol-2-yl)piperidin-3-amine], for which the IC50 was 3.05 µM.

With `N[C@@H]1CCCN(c2nc3ccccc3n2Cc2ccc(Cl)cc2)C1` [Example 377, (R)-1-(1-(4-chlorobenzyl)-1H-benzo[d]imidazol-2-yl)piperidin-3-amine], the IC50 stood at 1.65 µM.

In the case of `N[C@@H]1CCCN(c2nc3ccccc3n2Cc2cccc(Cl)c2)C1` [Example 378, (R)-1-(1-(3-chlorobenzyl)-1H-benzo[d]imidazol-2-yl)piperidin-3-amine], the IC50 came to 3.08 µM.

Regarding `CC(F)(F)c1ccc(Cn2c(N3CCC[C@@H](N)C3)nc3ccccc32)cc1` [Example 379, (R)-1-(1-(4-(1,1-difluoroethyl)benzyl)-1H-benzo[d]imidazol-2-yl)piperidin-3-amine], the IC50 is 4.44 µM.

Regarding `CC(C)(C#N)c1ccc(Cn2c(N3CCC[C@@H](N)C3)nc3ccccc32)cc1` [Example 380, (R)-2-(4-((2-(3-aminopiperidin-1-yl)-1H-benzo[d]imidazol-1-yl)methyl)phenyl)-2-methylpropanenitrile], the IC50 is 17 µM.

As for `N[C@@H]1CCCN(c2nc3ccccc3n2Cc2ccc(C(F)F)cc2)C1` [Example 381, (R)-1-(1-(4-(difluoromethyl)benzyl)-1H-benzo[d]imidazol-2-yl)piperidin-3-amine], the IC50 worked out at 5.68 µM.

Take `CNC(=O)c1ccc(Cn2c(N3CCC[C@@H](N)C3)nc3ccccc32)cc1` [Example 382, (R)-4-((2-(3-aminopiperidin-1-yl)-1H-benzo[d]imidazol-1-yl)methyl)-N-methylbenzamide]: the IC50 was above 50 µM.

On to `N#Cc1ccc(Cn2c(N3CCC[C@@H](N)C3)nc3ccccc32)c(F)c1` [Example 383, (R)-4-((2-(3-aminopiperidin-1-yl)-1H-benzo[d]imidazol-1-yl)methyl)-3-fluorobenzonitrile], for which the IC50 turned out to be 0.319 µM.

In the case of `N#CCOc1ccc(Cn2c(N3CCC[C@@H](N)C3)nc3ccccc32)cc1` [Example 384, (R)-2-(4-((2-(3-aminopiperidin-1-yl)-1H-benzo[d]imidazol-1-yl)methyl)phenoxy) acetonitrile], the IC50 worked out at 16 µM.

In the case of `CN(C)S(=O)(=O)c1ccc(Cn2c(N3CCC[C@@H](N)C3)nc3ccccc32)cc1` [Example 385, (R)-4-((2-(3-aminopiperidin-1-yl)-1H-benzo[d]imidazol-1-yl)methyl)-N,N-dimethylbenzenesulfon-amide], the IC50 is above 50 µM.

Turning to `Cc1ccc(Cn2c(N3CCC[C@@H](N)C3)nc3ccccc32)cc1` [Example 386, (R)-1-(1-(4-methylbenzyl)-1H-benzo[d]imidazol-2-yl)piperidin-3-amine], the IC50 came out at 4.26 µM.

As for `N[C@@H]1CCCN(c2nc3ccccc3n2Cc2ccc(F)cc2)C1` [Example 387, (R)-1-(1-(4-fluorobenzyl)-1H-benzo[d]imidazol-2-yl)piperidin-3-amine], the IC50 turned out to be 5.36 µM.

As for `N[C@@H]1CCCN(c2nc3ccccc3n2Cc2ccc(F)cc2F)C1` [Example 389, (R)-1-(1-(2,4-difluorobenzyl)-1H-benzo[d]imidazol-2-yl)piperidin-3-amine], the IC50 turned out to be 4.58 µM.

Regarding `N[C@@H]1CCCN(c2nc3ccccc3n2Cc2ccc(F)c(F)c2)C1` [Example 390, (R)-1-(1-(3,4-difluorobenzyl)-1H-benzo[d]imidazol-2-yl)piperidin-3-amine], the IC50 is 3.57 µM.

As for `N[C@@H]1CCCN(c2nc3ccccc3n2Cc2ccc(Cl)c(F)c2)C1` [Example 391, (R)-1-(1-(4-chloro-3-fluorobenzyl)-1H-benzo[d]imidazol-2-yl)piperidin-3-amine], the IC50 stood at 1.82 µM.

With `N[C@@H]1CCCN(c2nc3ccccc3n2Cc2cc(-c3cccc(Cl)c3)no2)C1` [Example 392, (R)-1-(1-((3-(3-chlorophenyl)isoxazol-5-yl)methyl)-1H-benzo[d]imidazol-2-yl)piperidin-3-amine], the IC50 is 2.24 µM.

Turning to `COc1ccc(Cn2c(N3CCC[C@@H](N)C3)nc3ccccc32)cc1Cl` [Example 393, (R)-1-(1-(3-chloro-4-methoxybenzyl)-1H-benzo[d]imidazol-2-yl)piperidin-3-amine], the IC50 is 5.05 µM.

With `N#Cc1ccc(Cn2c(N3CCC[C@@H](N)C3)nc3ccccc32)c(Cl)c1` [Example 394, (R)-4-((2-(3-aminopiperidin-1-yl)-1H-benzo[d]imidazol-1-yl)methyl)-3-chlorobenzonitrile], the IC50 worked out at 0.732 µM.

With `N[C@@H]1CCCN(c2nc3ccccc3n2Cc2ccc(Cl)cc2Cl)C1` [Example 395, (R)-1-(1-(2,4-dichlorobenzyl)-1H-benzo[d]imidazol-2-yl)piperidin-3-amine], the IC50 was 1.12 µM.

For the compound `COc1cc(C#N)ccc1Cn1c(N2CCC[C@@H](N)C2)nc2ccccc21` [Example 396, (R)-4-((2-(3-aminopiperidin-1-yl)-1H-benzo[d]imidazol-1-yl)methyl)-3-methoxybenzonitrile], the IC50 was 18.2 µM.

`N#Cc1cc(Cl)ccc1Cn1c(N2CCC[C@@H](N)C2)nc2ccccc21` [Example 397, (R)-2-((2-(3-aminopiperidin-1-yl)-1H-benzo[d]imidazol-1-yl)methyl)-5-chlorobenzonitrile]: the IC50 worked out at 1.58 µM.

Take `C[C@H](c1ccc(C#N)cc1)n1c(N2CCC[C@@H](N)C2)nc2ccccc21` [Example 398, 4-((R)-1-(2-((R)-3-aminopiperidin-1-yl)-1H-benzo[d]imidazol-1-yl)ethyl)benzonitrile]: the IC50 turned out to be 0.0874 µM.

For the compound `N#Cc1cccc(Cn2c(N3CCC[C@@H](N)C3)nc3ccccc32)c1` [Example 400, (R)-3-((2-(3-aminopiperidin-1-yl)-1H-benzo[d]imidazol-1-yl)methyl)benzonitrile], the IC50 is 16.5 µM.

On to `N#Cc1ccc(Cn2c(N3CC[C@H](F)[C@H](N)C3)nc3ccc(Cl)cc32)cc1` [Example 401, 4-((2-((3R,4S)-3-amino-4-fluoropiperidin-1-yl)-6-chloro-1H-benzo[d]imidazol-1-yl)methyl)benzonitrile hydrochloride], for which the IC50 is 0.000456 µM.

Regarding `COc1ccc2nc(N3CCC[C@H](N)C3)n(Cc3ccc(C#N)cc3)c2c1` [Example 402, (S)-4-((2-(3-aminopiperidin-1-yl)-6-methoxy-1H-benzo[d]imidazol-1-yl)methyl)benzonitrile hydrochloride], the IC50 came out at 0.00133 µM.

Regarding `COc1ccc2nc(N3CC[C@H](F)[C@H](N)C3)n(Cc3ccc(C#N)cc3)c2c1` [Example 403, 4-((2-((3R,4S)-3-amino-4-fluoropiperidin-1-yl)-6-methoxy-1H-benzo[d]imidazol-1-yl)methyl)benzonitrile], the IC50 amounted to 0.000395 µM.
